ChEMBL document CHEMBL1123796, “New antitumor agents containing the anthracene nucleus” (1987)

Columns and labels:
Type in all cases: functional
P388 [1] = assay: Antileukemic activity against P-388 in mice at a dose of 70 mg/kg administered intraperitoneally after 5 day treatment; details: Mus musculus, P388, ip, 120 h, route intraperitoneal
P388 [2] = assay: Antileukemic activity against P-388 in mice at a dose of 60 mg/kg administered intraperitoneally after 1 day treatment; details: Mus musculus, P388, ip, 24 h, route intraperitoneal
Mus musculus [3] = assay: Tested for high-dose toxicity in mice at a significant dose of 100 mg/kg administered intraperitoneally after 1 days of treatment; details: route intraperitoneal
P388 [4] = assay: Antileukemic activity against P-388 in mice at a dose of 90 mg/kg administered intraperitoneally after 1 day treatment; details: Mus musculus, P388, ip, 24 h, route intraperitoneal
Mus musculus [5] = assay: Tested for skin toxicity in BALB/c mice at a significant dose of 0.75 mg/kg administered intraintradermally and involved concentric circular areas of induration.
Mus musculus [6] = assay: Tested for high-dose toxicity in mice at a significant dose of 80 mg/kg administered intraperitoneally after 5 days of treatment; details: route intraperitoneal
L1210 = assay: Effect on DNA synthesis was determined by incorporation of radioligand into L1210 murine leukemia at a concentration of 10 ug/mL (*: >1 log cell kill); details: Mus musculus

CN(C)CCNCc1c2ccccc2c(CNCCN(C)C)c2ccccc12
ILS at 70 mg/kg (P388 [1]): 10%
ILS at 60 mg/kg (P388 [2]): 11%
Lethality (Mus musculus [3]): 60%
Median day of death (Mus musculus [3]): 0
ILS at 90 mg/kg (P388 [4]): -10%
Extent of skin lesions (Mus musculus [5]): 1.7 cm**2
Lethality (Mus musculus [6]): 20%
Median day of death (Mus musculus [6]): 4
inhibition at 10 µg/mL (L1210): 75.7%
